According to US20240216352A1 (priority 2022, published 2024):

Test system: healthy participants
Assay: Phase 1 Part B multiple ascending dose (MAD): blood pressure
Type: in vivo, human
Conditions: for Mean SBP: in mmHg (unit assumed)
Method: The study was performed in 3 parts in 112 healthy male and female participants, including 24 Japanese participants. Female participants were to be not of childbearing potential. The present study was designed to evaluate the safety and tolerability, PK, and exploratory PD of an oral suspension of Compound A. Parts A and B (Cohort B1 only) enrolled healthy participants and was conducted at a site in The Netherlands and Part B (Cohort B2 to B5) enrolled healthy non-Japanese participants and was conducted at a site in the United Kingdom (UK). Part C enrolled healthy Japanese participants and was conducted at the same site in the UK.
Part B was a MAD study in a planned number of 6 sequential dose escalation cohorts (10 mg QD, 30 mg QD, 30 mg BID, 60 mg BID, 125 mg BID, and ≤250 mg BID) of 8 healthy participants (6 active+2 placebo) each, under fasted conditions. However, Cohort B6 (≤250 mg BID) was cancelled because sufficient safety and PK data had been obtained at doses up to 125 mg BID. Eligible participants received study drug (Compound A or placebo) administered orally for 14 days.
Physical examinations, vital sign measurements (including orthostasis testing in Cohort A6, Cohort B3 to B5, and C1 to C3 at selected time points), 12-lead electrocardiogram (ECG), and clinical laboratory evaluations were performed at selected times throughout the study. In addition, Holter monitoring was performed for the first 24 hours post dose on Day 1 in Part A (not in FE/pH cohort), and also for the first 24 hours post dose on Day 1 and Day 14 in Parts B and C. Participants were closely monitored for adverse events (AEs). Blood samples were collected for up to 14 days (follow-up visit) after (last) study drug administration for PK analysis. In addition, blood and urine were collected for exploratory biomarker assessments and for biobanking of samples for potential analyses. Urine was collected for potential PK analysis for up to 96 hours after a single dose of Compound A or placebo was administered in the SAD part, and for up to 24 hours after the first (morning) dose of study drug on Day 1 and for up to 24 hours after the last (morning) dose of study drug on Day 14 in the MAD parts.

Structure (SMILES): CCCN(C)C(=O)OCc1c(-c2ccc(O[C@H]3CCC[C@H](C(=O)O)C3)c(C)n2)nnn1C [Compound A, (1S,3S)-3-((2-methyl-6-(1-methyl-5-(((methyl(propyl)carbamoyl)-oxy)methyl)-1H-1,2,3-triazol-4-yl)pyridin-3-yl)oxy)cyclohexane-1-carboxylic acid]
- Maximum of mean (±SD) reduction in DBP from baseline (MAD 10 mg QD (B1)): 6.8 ± 2.64 mmHg
- Time of maximum mean DBP reduction (MAD 10 mg QD (B1)): 1-5 Day-h
- Mean DBP (MAD 10 mg QD, D 1 2 h): 70.2 mmHg
- Mean SBP (MAD 10 mg QD, D 1 2 h): 112.2
- Mean DBP (MAD 10 mg QD, D 1 4 h): 65.8 mmHg
- Mean SBP (MAD 10 mg QD, D 1 4 h): 109.5
- Mean DBP (MAD 10 mg QD, D 1 8 h): 68.7 mmHg
- Mean SBP (MAD 10 mg QD, D 1 8 h): 112.8
- Mean DBP (MAD 10 mg QD, D 2 24 h): 65.3 mmHg
- Mean SBP (MAD 10 mg QD, D 2 24 h): 108.5
- Mean DBP (MAD 10 mg QD, D 14 312 h): 69.3 mmHg
- Mean SBP (MAD 10 mg QD, D 14 312 h): 112.8
- Mean DBP (MAD 10 mg QD, D 14 314 h): 67.5 mmHg
- Mean SBP (MAD 10 mg QD, D 14 314 h): 113.5
- Mean DBP (MAD 10 mg QD, D 14 317 h): 64.3 mmHg
- Mean SBP (MAD 10 mg QD, D 14 317 h): 114.5
- Mean DBP (MAD 10 mg QD, D 14 320 h): 67.5 mmHg
- Mean SBP (MAD 10 mg QD, D 14 320 h): 111.2
- Mean DBP (MAD 10 mg QD, D 15 336 h): 66.8 mmHg
- Mean SBP (MAD 10 mg QD, D 15 336 h): 110.8
- Maximum of mean (±SD) reduction in DBP from baseline (MAD 30 mg BID (B3)): 11.2 ± 4.58 mmHg
- Maximum of mean (±SD) reduction in SBP from baseline (MAD 30 mg BID (B3)): 15.8 ± 10.19 mmHg
- Time of maximum mean DBP reduction (MAD 30 mg BID (B3)): 1-5 Day-h
- Time of maximum mean SBP reduction (MAD 30 mg BID (B3)): 1-5 Day-h
- Mean DBP (MAD 30 mg BID, D 1 2 h): 63.3 mmHg
- Mean SBP (MAD 30 mg BID, D 1 2 h): 106.5
- Mean DBP (MAD 30 mg BID, D 1 4 h): 62.7 mmHg
- Mean SBP (MAD 30 mg BID, D 1 4 h): 107.2
- Mean DBP (MAD 30 mg BID, D 1 8 h): 63.2 mmHg
- Mean SBP (MAD 30 mg BID, D 1 8 h): 106.3
- Mean DBP (MAD 30 mg BID, D 2 24 h): 66.7 mmHg
- Mean SBP (MAD 30 mg BID, D 2 24 h): 114.7
- Mean DBP (MAD 30 mg BID, D 14 312 h): 68.7 mmHg
- Mean SBP (MAD 30 mg BID, D 14 312 h): 119.7
- Mean DBP (MAD 30 mg BID, D 14 314 h): 63.8 mmHg
- Mean SBP (MAD 30 mg BID, D 14 314 h): 109.7
- Mean DBP (MAD 30 mg BID, D 14 317 h): 61 mmHg
- Mean SBP (MAD 30 mg BID, D 14 317 h): 114.3
- Mean SBP (MAD 30 mg BID, D 14 320 h): 110.0
- Mean DBP (MAD 30 mg BID, D 15 336 h): 65.3 mmHg
- Mean SBP (MAD 30 mg BID, D 15 336 h): 116.3
- Maximum of mean (±SD) reduction in DBP from baseline (MAD 30 mg QD (B2)): 8.8 ± 4.62 mmHg
- Maximum of mean (±SD) reduction in SBP from baseline (MAD 30 mg QD (B2)): 10.7 ± 7.06 mmHg
- Mean DBP (MAD 30 mg QD, D 1 2 h): 66.5 mmHg
- Mean SBP (MAD 30 mg QD, D 1 2 h): 104.8
- Mean DBP (MAD 30 mg QD, D 1 4 h): 67.8 mmHg
- Mean SBP (MAD 30 mg QD, D 1 4 h): 102.3
- Mean DBP (MAD 30 mg QD, D 1 8 h): 66 mmHg
- Mean SBP (MAD 30 mg QD, D 1 8 h): 107.2
- Mean DBP (MAD 30 mg QD, D 2 24 h): 67.3 mmHg
- Mean SBP (MAD 30 mg QD, D 2 24 h): 114.3
- Mean DBP (MAD 30 mg QD, D 14 312 h): 63.3 mmHg
- Mean SBP (MAD 30 mg QD, D 14 312 h): 110.0
- Mean DBP (MAD 30 mg QD, D 14 314 h): 63.5 mmHg
- Mean SBP (MAD 30 mg QD, D 14 314 h): 101.7
- Mean DBP (MAD 30 mg QD, D 14 317 h): 61.8 mmHg
- Mean SBP (MAD 30 mg QD, D 14 317 h): 102.3
- Mean DBP (MAD 30 mg QD, D 14 320 h): 63.2 mmHg
- Mean SBP (MAD 30 mg QD, D 14 320 h): 101.5
- Mean DBP (MAD 30 mg QD, D 15 336 h): 62.3 mmHg
- Mean SBP (MAD 30 mg QD, D 15 336 h): 107.3
- Maximum of mean (±SD) reduction in DBP from baseline (MAD 60 mg BID (B4)): 8.3 ± 6.89 mmHg
- Maximum of mean (±SD) reduction in SBP from baseline (MAD 60 mg BID (B4)): 17.5 ± 11.31 mmHg
- Time of maximum mean DBP reduction (MAD 60 mg BID (B4)): 3-4 Day-h
- Mean DBP (MAD 60 mg BID, D 1 2 h): 64.5 mmHg
- Mean SBP (MAD 60 mg BID, D 1 2 h): 110.2
- Mean DBP (MAD 60 mg BID, D 1 4 h): 66 mmHg
- Mean SBP (MAD 60 mg BID, D 1 4 h): 106.7
- Mean DBP (MAD 60 mg BID, D 1 8 h): 64.7 mmHg
- Mean SBP (MAD 60 mg BID, D 1 8 h): 109.3
- Mean DBP (MAD 60 mg BID, D 2 24 h): 65.7 mmHg
- Mean SBP (MAD 60 mg BID, D 2 24 h): 118.8
- Mean DBP (MAD 60 mg BID, D 14 312 h): 64.8 mmHg
- Mean SBP (MAD 60 mg BID, D 14 312 h): 111.8
- Mean DBP (MAD 60 mg BID, D 14 314 h): 64 mmHg
- Mean SBP (MAD 60 mg BID, D 14 314 h): 110.5
- Mean DBP (MAD 60 mg BID, D 14 317 h): 62.5 mmHg
- Mean SBP (MAD 60 mg BID, D 14 317 h): 114.8
- Mean DBP (MAD 60 mg BID, D 14 320 h): 63 mmHg
- Mean SBP (MAD 60 mg BID, D 14 320 h): 115.5
- Mean DBP (MAD 60 mg BID, D 15 336 h): 64.5 mmHg
- Mean SBP (MAD 60 mg BID, D 15 336 h): 114.5
- Maximum of mean (±SD) reduction in DBP from baseline (MAD 125 mg BID (B5)): 14.7 ± 5.68 mmHg
- Maximum of mean (±SD) reduction in SBP from baseline (MAD 125 mg BID (B5)): 14.5 ± 5.86 mmHg
- Time of maximum mean DBP reduction (MAD 125 mg BID (B5)): 12-12 Day-h
- Mean DBP (MAD 125 mg BID, D 1 2 h): 62.3 mmHg
- Mean SBP (MAD 125 mg BID, D 1 2 h): 112.2
- Mean DBP (MAD 125 mg BID, D 1 4 h): 64.7 mmHg
- Mean SBP (MAD 125 mg BID, D 1 4 h): 112.2
- Mean DBP (MAD 125 mg BID, D 1 8 h): 64.7 mmHg
- Mean SBP (MAD 125 mg BID, D 1 8 h): 107.3
- Mean DBP (MAD 125 mg BID, D 2 24 h): 66.3 mmHg
- Mean SBP (MAD 125 mg BID, D 2 24 h): 118.8
- Mean DBP (MAD 125 mg BID, D 14 312 h): 62 mmHg
- Mean SBP (MAD 125 mg BID, D 14 312 h): 111.3
- Mean DBP (MAD 125 mg BID, D 14 314 h): 65 mmHg
- Mean SBP (MAD 125 mg BID, D 14 314 h): 116.0
- Mean DBP (MAD 125 mg BID, D 14 317 h): 59.2 mmHg
- Mean SBP (MAD 125 mg BID, D 14 317 h): 116.3
- Mean DBP (MAD 125 mg BID, D 14 320 h): 61.8 mmHg
- Mean SBP (MAD 125 mg BID, D 14 320 h): 114.5
- Mean DBP (MAD 125 mg BID, D 15 336 h): 63 mmHg
- Mean SBP (MAD 125 mg BID, D 15 336 h): 111.3
- BP reductions versus placebo (MAD BID groups): no clear differences between placebo and the Compound A groups
- Dose dependence of mean SBP and DBP reductions (MAD QD groups): reductions generally occurred in a Compound A dose-dependent manner
